The values that follow come from ChEMBL document CHEMBL5385945, “An ascidian Polycarpa aurata-derived pan-inhibitor against coronaviruses targeting Mpro” (Bioorg Med Chem Lett, 2024).

The target in data set [1] is Replicase polyprotein 1ab (Severe acute respiratory syndrome coronavirus 2) (UniProt P0DTD1). Briefly: Inhibition of SARS-CoV-2 Main protease at 2 uM relative to control.
Data set [2] addresses Replicase polyprotein 1ab (Severe acute respiratory syndrome coronavirus 2, UniProt P0DTD1). The experiment in a line: (§1) Inhibition of SARS-CoV-2 Main protease.
The target of data set [3] is Replicase polyprotein 1ab (Severe acute respiratory syndrome coronavirus 2) (UniProt P0DTD1). The description is as §1.
Data set [4] can be described thus: Inhibition of Porcine epidemic diarrhea virus Main protease.
Data set [5] can be described thus: Cytotoxicity against African green monkey Vero E6 cells assessed as reduction of cell viability. The data set is classed as toxicity, cell-based, Vero C1008. The following applies: chlorocebus sabaeus.
The subject of data set [6] is SARS-CoV-2. The experiment in a line: Antiviral activity against SARS-CoV-2 infected in African green monkey Vero E6 cells assessed as inhibition of viral replication. The format is functional, organism-based. The following applies: Severe acute respiratory syndrome coronavirus 2, Vero C1008.
The test system of data set [7] is Porcine epidemic diarrhea virus. Briefly: Antiviral activity against Porcine epidemic diarrhea virus infected in African green monkey Vero E6 cells assessed as inhibition of viral replication. The format is functional, organism-based. As to conditions: Vero C1008.
Data set [8] can be described thus: Selectivity ratio of CC50 for cytotoxicity against African green monkey Vero E6 cells to EC50 for antiviral activity against SARS-CoV-2 infected in African green monkey Vero E6 cells. As to conditions: read-out: Ratio CC50/EC50. The format is toxicity, cell-based, Vero C1008.

Usually inhibition stands for the relative decrease from the control value, in per cent. What is called IC50 is the concentration at which inhibition is half-maximal. What is called CC50 is the concentration giving 50% cytotoxicity. In general, EC50 refers to the concentration that produces a half-maximal response.

`CC(C)=CC[C@@H](OC(=O)CC(C)(C)O)C1=CC(=O)c2c(O)ccc(O)c2C1=O` [BETA-HYDROXYISOVALERYLSHIKONIN]: the inhibition in data set [1] was above 50%. Besides, half-maximal inhibition in data set [2] (IC50) required 1020 nM.
In the case of `COc1ccc(-c2nc(N)n(C)c2SSc2c(-c3ccc(OC)cc3)nc(N)n2C)cc1`, the results for the inhibition in data set [1] and in data set [3] were above 50% and “Dose-Dependent Effect”, respectively. In addition, the half-maximal inhibitory concentration (IC50) turned out to be 30 nM in data set [2] and 120 nM in data set [4]. Besides, the CC50 in data set [5] is 50200 nM. For the same compound, the EC50 in data set [6] stood at 4090 nM; in data set [7], 5680 nM. The selectivity ratio in data set [8] was above 10.
In data set [1], `CC(=O)O[C@H](CC=C(C)C)C1=CC(=O)c2c(O)ccc(O)c2C1=O` [ACETYLSHIKONIN] displayed an inhibition above 50%. Besides, it took 350 nM to reach half-maximal inhibition in data set [2] (IC50).
